The results in this text go back to patent publication US20120270771A1, “APOLIPOPROTEIN A-1 MIMIC PEPTIDES, AND THERAPEUTIC AGENT FOR TREATING HYPERLIPIDEMIA AND DISEASES RELATED TO HYPERLIPIDEMIA COMPRISING SAME” (SNU R&DB FOUNDATION, priority 2009, published 2012).

Assay [1] in a line: tryptophan fluorescence measurement of peptide with or without liposome (LUV). The format is binding. The settings on record: for dependence of tryptophan fluorescence intensity on the relative amount of cholesterol in the liposome: LUVs containing cholesterol at 0%, 10%, 20%, 30% and 40%, FIG. 5; for tryptophan fluorescence intensity measured under LUV condition (ratio with or without liposome): 1 μM peptide, liposome 0.1 mg/ml; for tryptophan fluorescence intensity measured under LUV condition (ratio with or without liposome) / increase in fluorescence intensity in the lipid environment when compared to in aqueous solution: FIG. 4; for increase in fluorescence intensity in the lipid environment when compared to in aqueous solution: tryptophan fluorescence. The method, then:
Total 10 mg of lipid compound was prepared by mixing phosphatidylcholine (soybean) and the LUVs containing cholesterol at 0%, 10%, 20%, 30% and 40%. The lipid compound was dissolved in 2 mL of solution containing 2:1 volumes of chloroform and methanol. The solvent is removed by using distillation condensation device and yielding a thin lipid film in the flask. The lipid film is hydrated by adding 1 mL of tertiary distilled water. Liposomes of the same size were generated by extruding the solution through a […] filter for 5 times, and 0.1 μm polycarbonate filter for 5 times using a cylinder fitted with a high pressure regulator. The amount of cholesterol contained in the liposome was measured by using cholesterol Lab-assay kit.
Fluorescence Anisotropy was measured using AMINCO-Bowman Series Luminescence Spectrometer at 20° C. For the buffer system, 10 mM HEPES (N-2-Hydroxyethylpiperazine-N′-2-Ethanesulfonic Acid, pH 7.4) containing 140 mM NaCl, 1 mM EDTA (ethylenediaminetetraacetic acid) was used. The concentration of the peptide was 500 μM and was kept at 0° C. The fluorescence emission spectrum was monitored by adding […] of peptide with 499 μl buffer solution to a final concentration of 1 μM. Liposome was added to the above buffer and peptide mixture solution to the final concentration of 0.1 mg/ml. The ratio of the intensity was calculated by measuring the spectrum in the condition of with or without liposome.

For the next assay, the system named is macrophage cell line. The experiment in a line: cholesterol efflux assay in macrophage cells loaded with 3H-labeled cholesterol. It counts as cell-based, Human. Particulars: 20 μM peptide, 4 hr incubation. The method, then: The present inventors determined the calculated mass value of the Apo A-I mimic peptide and the actual mass value of the A-1 mimic peptide acquired following the synthesis and purification step (see Table 1). In addition, cholesterol efflux was analyzed to screen the peptides. Human macrophage cells were treated with ^3H radioisotope labeled cholesterol. Next, the cells were treated with each of the peptide prepared from above. The amount of high density lipoprotein (HDL) produced was analyzed by measuring the amount of intracellular cholesterol and extracellular cholesterol released from the macrophage. […] There was a significant increase in cholesterol efflux when phenylalanine was substituted with tryptophan or naphthylalanine (see FIG. 3).
In order to screen which of the peptide synthesized from Example 1 mimics the Apo A-I, cholesterol efflux assay was performed by treating the macrophage cell line with the peptides. In particular, DMEM (Dulbecco's Modified Eagle medium) containing penicillin-streptomycin and 10% FBS (Fetal Bovine Serum) was used as the cell culture medium. […] The culture medium and the cells were separated to measure the radioactivity using Liquid Scintillation Counter. The level of cholesterol efflux was determined by measuring the ratio of isotope labeled cholesterol remained in the cell and in the cell culture medium, respectively.

Square brackets hold non-standard residues; d marks the D form. 2Nal = N[C@@H](Cc1ccc2ccccc2c1)C(=O)O

For “Ac-DWFAKDYFKKAFVEEFAK (Ac-DWFAKDYFKKAFVEEFAK-NH2) [Sc-4F, negative control group of 4F, reference compound]”, the “dependence of tryptophan fluorescence intensity on the relative amount of cholesterol in the liposome” value in assay [1] is on record as “irrelevant to the concentration of cholesterol”.

Consider “Ac-DWFKAFYDKVAEKFKEAF (Ac-DWFKAFYDKVAEKFKEAF-NH2) [4F, existing Apo A-I mimic peptide, first generation amphiphilic alpha helix peptide containing 4 phenylalanine, reference compound]”, for which, in assay [1], the “tryptophan fluorescence intensity measured under LUV condition (ratio with or without liposome)” value is on record as “about 1.9” and the “dependence of tryptophan fluorescence intensity on the relative amount of cholesterol in the liposome” value was “irrelevant to the concentration of cholesterol”.

On to “Ac-EWFKAFYDKVAEKFKEAF (Ac-EWFKAFYDKVAEKFKEAF-NH2) [1a]”, for which, in assay [1], the “tryptophan fluorescence intensity measured under LUV condition (ratio with or without liposome)” value is on record as roughly 2.1 and the “increase in fluorescence intensity in the lipid environment when compared to in aqueous solution” value was “about 2.1 fold”.

For the substance “Ac-EWNal2KAFYDKVAEKFKEANal2 (Ac-EW[2Nal]KAFYDKVAEKFKEA[2Nal]-NH2; SMILES CC(=O)N[C@@H](CCC(=O)O)C(=O)N[C@@H](Cc1c[nH]c2ccccc12)C(=O)N[C@@H](Cc1ccc2ccccc2c1)C(=O)N[C@@H](CCCCN)C(=O)N[C@@H](C)C(=O)N[C@@H](Cc1ccccc1)C(=O)N[C@@H](Cc1ccc(O)cc1)C(=O)N[C@@H](CC(=O)O)C(=O)N[C@@H](CCCCN)C(=O)N[C@H](C(=O)N[C@@H](C)C(=O)N[C@@H](CCC(=O)O)C(=O)N[C@@H](CCCCN)C(=O)N[C@@H](Cc1ccccc1)C(=O)N[C@@H](CCCCN)C(=O)N[C@@H](CCC(=O)O)C(=O)N[C@@H](C)C(=O)N[C@@H](Cc1ccc2ccccc2c1)C(N)=O)C(C)C) [2s]”, the “increase in cholesterol efflux when compared to peptide 4F” value in the assay on macrophage cell line is listed as “about 300%”. In assay [1], the “tryptophan fluorescence intensity measured under LUV condition (ratio with or without liposome)” value is reported as “about 4.3”, the “dependence of tryptophan fluorescence intensity on the relative amount of cholesterol in the liposome” value is “significant increase of fluorescence intensity according to the increased concentration of the cholesterol inside the liposome” and the “increase in fluorescence intensity in the lipid environment when compared to in aqueous solution” value is “about 4.30 fold”.
